Data set [1] relates to P19 neurons. Nature of the data set: A23187-induced toxicity in P19 neurons (Alamar blue). Format: cell-based, murine. As to conditions: Mus musculus, Neuron, 24 h. Here is the method:
Cells were then assayed for Alamar blue fluorescence. […] Data points are represented as percent of control cells ±standard error.
In general terms: Alamar Blue is a resazurin reagent that responds to reducing activity.

In data set [2] the test system is differentiated P19 neurons. Nature of the data set: Differentiated P19 excitotoxicity assay (glutamate/glycine-induced death, Alamar Blue). Format: cell-based, murine. Conditions: for IC50: read-out: IC50 for Neuroprotection [lower-upper 95% C.I.]; for Emax: read-out: Maximal Efficacy for Neuroprotection. As to the method:
Alamar Blue fluorescence, an indicator of cell viability, was used to determine cell viability after an NMDA-induced cytotoxic insult. […] However, since raw fluorescence counts vary from experiment to experiment, FIGS. 2A, 2B, and 2C are expressed as a percent of control.
(§1) Glutamate toxicity dose response in the presence of a constant 1 mM glycine concentration was measured in the differentiated P19 neurons. The curve generated through the data points is the average of 6 separate dose response curves. Data points are represented as the percent of control cells ±standard error. % control=(([Glutamate]exp−[Glutamate]max)/(Controlvehicle−[Glutamate]max))×100.
Data points are the average ±standard error of three separate experiments.
These cells were used to measure the effects of various known kinase inhibitors (Compound Identification (ID) column in Table I) upon cytotoxicity-induced by NMDA. First, P19 cells were differentiated as described in Example 2. Then cells were exposed to 3 mM of glutamate in the presence of 1 mM glycine.
Cell viability was determined. Compounds that prevented excitotoxicity were determined by measuring the percentage of viable cells compared to differentiated P19 cells that were not presented with a toxic insult (Table I).
Cell viability was measured using two methods. The first method was a confocal, single-cell fluorescence imaging-based method using the live cell dye carboxy-fluorescein diacetate (CFDA). CFDA labels the cell bodies and processes of living cells. […] CFDA fluorescence was measured using a modified Attofluor Imager device (Atto Instruments, Rockville Pike, Md.). Cells were labeled with 1 uM CFDA for 15 min in media, then placed onto the stage of the Attofluor microscope. The dye was excited by light from a mercury lamp source passed through a 488 nm bandpass filter of 10 nm band width, passed through a CARV real-time confocal spinning disk module (Atto Instruments, Rockville, Md.), and then passed through a 40× oil immersion objective (Zeiss Fluar, NA=1.3). Emitted light was transmitted through a 495 nm dichroic mirror, collected to an Attofluor intensified CCD camera, and images were visualized using Attofluor RatioVision software (Atto Instruments, Rockville, Md.).
The second method for measuring cell viability was a plate reader method. Cells plated into black 96 well plates (Packard viewplates) are loaded with 5% Alamar Blue dye (Biosource International). Alamar Blue is a dye that takes advantage of mitochondrial reductases to convert non-fluorescent resazurin to fluorescent resorufin (excitation 535 nm, emission 580 nm). Baseline fluorescence counts were read at room temperature in a Wallac plate reader immediately after addition of Alamar blue. Fluorescence counts of cell viability were taken the same way after 1 hour incubation at 37° C. Fluorescence was expressed as a percent of control, untreated cells after subtraction of background fluorescence. Live/dead cells were confirmed visually with a light microscope. […]

In a further data set the target is T1, Casein Kinase 2 (Homo sapiens, UniProt P68400).
T1 construct: host or cells: E. coli
T1 sequence (P68400 whole entry): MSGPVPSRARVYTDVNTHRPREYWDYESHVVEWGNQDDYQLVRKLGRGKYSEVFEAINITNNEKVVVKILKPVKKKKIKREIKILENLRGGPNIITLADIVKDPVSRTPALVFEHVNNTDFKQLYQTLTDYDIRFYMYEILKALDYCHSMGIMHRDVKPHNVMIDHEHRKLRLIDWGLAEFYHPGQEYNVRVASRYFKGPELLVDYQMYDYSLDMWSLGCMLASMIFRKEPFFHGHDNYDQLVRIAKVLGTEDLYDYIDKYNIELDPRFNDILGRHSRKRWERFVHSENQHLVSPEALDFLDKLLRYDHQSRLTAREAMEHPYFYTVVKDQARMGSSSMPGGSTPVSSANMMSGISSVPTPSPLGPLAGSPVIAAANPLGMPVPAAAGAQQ
T1 sequence (P67870 whole entry partner): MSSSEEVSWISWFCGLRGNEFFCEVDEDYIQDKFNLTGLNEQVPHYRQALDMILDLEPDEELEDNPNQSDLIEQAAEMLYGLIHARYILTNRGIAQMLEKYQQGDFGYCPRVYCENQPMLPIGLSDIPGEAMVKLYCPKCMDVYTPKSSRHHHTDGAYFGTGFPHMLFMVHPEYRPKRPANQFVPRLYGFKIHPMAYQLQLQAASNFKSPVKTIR
Nature of the data set: Kinase assay (33P Flashplate), Casein Kinase 2. Format: biochemical. As to conditions: mean of at least two curves. Here is the method: (§2) The general procedure used to assay for kinase activity was as follows: a kinase reaction mix was prepared in 50 mM Tris-HCl pH=8, 10 mM MgCl2, 0.1 mM Na3VO4, 1 mM DTT, 10 μM ATP, 0.25-1 μM biotinylated peptide substrate, 0.2-0.8 [Curies per well ^33P-γ-ATP [2000-3000 Ci/mmol]. Assay conditions varied slightly for each protein kinase, for example, insulin receptor kinase requires 10 mM MnCl2 for activity and calmodulin-dependent protein kinase requires calmodulin and 10 mM CaCl2. Reaction mix was dispensed into the wells of a streptavidin-coated Flashplate and 1 μl drug stock in 100% DMSO was added to a 100 μL reaction volume resulting in a final concentration of 1% DMSO in the reaction. Enzyme was diluted in 50 mM Tris-HCl pH=8.0, 0.1% BSA and added to each well. […] Test compounds were assayed in duplicate at 8 concentrations ranging from 100 μM to 10 μM in one order of magnitude steps. […] The IC50 was calculated from the dose response curve of the percent inhibition of the maximum signal in the assay according to the formula [max signal−background/test compound signal−background×(100)]=% inhibition by graphing the percent inhibition against the log concentration of test compound.
(§3) Casein Kinase 1 is a truncation at amino acid 318 of the C-terminal portion of the rat CK1 delta isoform produced in E. coli.

The target in the next data set is T2, CDK1 (Homo sapiens, UniProt P06493).
T2 construct: host or cells: insect cells
T2 sequence (P06493 whole entry): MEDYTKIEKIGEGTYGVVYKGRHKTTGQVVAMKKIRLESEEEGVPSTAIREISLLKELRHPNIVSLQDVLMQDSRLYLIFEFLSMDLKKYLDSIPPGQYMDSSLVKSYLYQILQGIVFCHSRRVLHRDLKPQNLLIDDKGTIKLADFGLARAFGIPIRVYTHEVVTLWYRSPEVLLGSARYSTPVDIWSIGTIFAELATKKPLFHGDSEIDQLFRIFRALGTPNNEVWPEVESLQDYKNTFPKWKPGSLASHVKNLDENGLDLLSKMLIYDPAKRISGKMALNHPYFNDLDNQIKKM
T2 sequence (P14635 whole entry partner): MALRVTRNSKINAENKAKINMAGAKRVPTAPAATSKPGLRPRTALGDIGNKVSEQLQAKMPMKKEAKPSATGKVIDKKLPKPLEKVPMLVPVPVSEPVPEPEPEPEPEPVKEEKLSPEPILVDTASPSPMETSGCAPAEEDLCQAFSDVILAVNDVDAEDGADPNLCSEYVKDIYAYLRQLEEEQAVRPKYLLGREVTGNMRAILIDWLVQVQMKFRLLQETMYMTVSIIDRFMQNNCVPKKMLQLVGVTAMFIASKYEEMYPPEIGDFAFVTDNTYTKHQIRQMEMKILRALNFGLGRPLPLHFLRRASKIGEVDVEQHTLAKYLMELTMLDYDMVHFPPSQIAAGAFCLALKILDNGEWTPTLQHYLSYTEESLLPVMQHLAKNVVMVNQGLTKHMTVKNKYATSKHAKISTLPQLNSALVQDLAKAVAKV
The experiment in a line: Kinase assay (33P Flashplate), CDK1. Format: biochemical. As to conditions: mean of at least two curves. Here is the method: as §2, §3

A further data set addresses T3, Calmodulin Kinase (Rattus norvegicus, UniProt P11275).
T3 construct: host or cells: insect cells
Nature of the data set: Kinase assay (33P Flashplate), Calmodulin Kinase. Format: biochemical. Conditions: mean of at least two curves. As to the method: as §2, §3

Another data set concerns the target T4, Casein Kinase 1 (Rattus norvegicus, UniProt Q06486).
T4 construct: a truncation at amino acid 318 of the C-terminal portion of the rat CK1 delta isoform; host or cells: E. coli
T4 sequence (Q06486 1-317): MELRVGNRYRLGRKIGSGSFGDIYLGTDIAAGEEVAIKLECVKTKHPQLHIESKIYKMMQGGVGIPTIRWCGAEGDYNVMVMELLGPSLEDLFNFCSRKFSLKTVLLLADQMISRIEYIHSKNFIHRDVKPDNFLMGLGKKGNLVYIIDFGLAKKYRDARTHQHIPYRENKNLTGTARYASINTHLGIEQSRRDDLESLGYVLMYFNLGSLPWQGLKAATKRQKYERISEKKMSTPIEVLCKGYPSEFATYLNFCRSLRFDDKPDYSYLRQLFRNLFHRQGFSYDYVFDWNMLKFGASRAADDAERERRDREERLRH
Nature of the data set: Kinase assay (33P Flashplate), Casein Kinase 1. Conditions: mean of at least two curves. Format: biochemical. As to the method:
as §2, §3

The target of a further data set is T5, Insulin Receptor Kinase (Homo sapiens, UniProt P06213).
T5 construct: Insulin Receptor Kinase consists of residues 941-1313 of the cytoplasmic domain of the beta-subunit of the human insulin receptor
T5 sequence (P06213 980-1352): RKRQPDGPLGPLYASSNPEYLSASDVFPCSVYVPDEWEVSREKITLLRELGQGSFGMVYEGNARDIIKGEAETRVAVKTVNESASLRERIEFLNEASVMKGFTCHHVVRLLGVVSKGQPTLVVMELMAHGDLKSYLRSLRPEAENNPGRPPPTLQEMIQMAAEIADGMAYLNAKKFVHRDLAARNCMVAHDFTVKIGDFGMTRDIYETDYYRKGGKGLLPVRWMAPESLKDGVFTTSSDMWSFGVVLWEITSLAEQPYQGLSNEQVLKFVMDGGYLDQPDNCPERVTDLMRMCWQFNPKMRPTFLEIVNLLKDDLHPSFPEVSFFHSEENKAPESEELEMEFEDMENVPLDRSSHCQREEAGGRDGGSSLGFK
Nature of the data set: Kinase assay (33P Flashplate), Insulin Receptor Kinase. Format: biochemical. Conditions: mean of at least two curves. As to the method: as §2, §3

The target in a further data set is T6, PKC-γ (Homo sapiens, UniProt P05129).
T6 construct: host or cells: insect cells
Nature of the data set: Kinase assay (33P Flashplate), PKC-γ. Format: biochemical. As to conditions: mean of at least two curves. As to the method:
as §2, §3

For a further data set, the target named is T7, PK A (Bos taurus, UniProt P00517).
T7 construct: Protein Kinase A is the catalytic subunit of cAMP-dependent protein kinase-A purified from bovine heart; from tissue; host or cells: bovine heart
The experiment in a line: Kinase assay (33P Flashplate), Protein Kinase A. Format: biochemical, bovine. Conditions: mean of at least two curves; read-out: PK A. Here is the method: Assay conditions varied slightly for each protein kinase, for example, insulin receptor kinase requires 10 mM MnCl2 for activity and calmodulin-dependent protein kinase requires calmodulin and 10 mM CaCl2. Reaction mix was dispensed into the wells of a streptavidin-coated Flashplate and 1 μl drug stock in 100% DMSO was added to a 100 μL reaction volume resulting in a final concentration of 1% DMSO in the reaction. Enzyme was diluted in 50 mM Tris-HCl pH=8.0, 0.1% BSA and added to each well. The reaction was incubated for one hour at 30° C. in the presence of compound. After one hour the reaction mix was aspirated from the plate and the plate was washed with PBS containing 100 mM EDTA. The plate was read on a scintillation counter to determine ^33P-γ-ATP incorporated into the immobilized peptide. Test compounds were assayed in duplicate at 8 concentrations ranging from 100 μM to 10 μM in one order of magnitude steps. A maximum and minimum signal for the assay was determined on each plate. The IC50 was calculated from the dose response curve of the percent inhibition of the maximum signal in the assay according to the formula [max signal−background/test compound signal−background×(100)]=% inhibition by graphing the percent inhibition against the log concentration of test compound. Known inhibitor compounds appropriate for the kinase being assayed were also included on each plate. […]

Data set [3] concerns P19 neurons. Conditions: mouse, 1 mM. Here is the method: as §1
The next data set concerns the target CAMKII. Conditions: from the literature; read-out: Potency, CAMKII; cited from earlier work.
A further data set addresses EGF receptor (Homo sapiens, UniProt P00533). Conditions: from the literature; read-out: Potency, EGF receptor; cited from earlier work.
In a further data set the target is p60^c-src (Homo sapiens, UniProt P12931). As to conditions: from the literature; read-out: Potency, p60^c-src; cited from earlier work.
The test system of data set [4] is NMDA receptor. As to conditions: 3 mM glutamate, 1 mM glycine; MK-801 100 μM, U0126 10 μM.
Procedure: Cells were loaded with 5 μM Fura-2-AM (Molecular Probes) for 1 hr at 37° C. They were washed once with Hank's balanced salt solution (HBSS, Gibco BRL), and assayed in HBSS buffer. Cells were placed onto the stage of a modified ATTOFLUOR™ Imager (Atto Instruments, Rockville Pike, Md.). High speed, dual excitation of fura-2 was carried out using a RATIOARC™ High-Speed Excitor (Atto Instruments). Mercury lamp light was passed through 334 nm or 380 nm bandpass filters (10 nm band width), and then passed through a 20× objective (Zeiss, Plan-Apochromat, NA=0.75) at a rate of 2.5 Hz. Emitted light was transmitted through a 400 nm dichroic mirror, and collected to an ATTOFLUORT intensified CCD camera. Ratio-images were acquired, and the average intensity of the images when excited at 334 nm and 380 nm was analyzed using ATTOFLUOR RATIOVISION™ software (Atto Instruments, Rockville, Md.).
MK-801 was administered 24 hours prior to assay. Traces are the average ±standard error from three separate experiments for each condition. […] MK-801 inhibition of [^3H]-MK-801 binding was assayed in P19 membranes. MK-801 concentrations are expressed as 10^−x Molar. Data points represent the mean ±standard error from eight experiments. % control=((CPM−CPMbottom)/(CPMtop−CPMbottom))×100.
Traces are the average ±standard error from four separate experiments for each condition.
Data set [5] concerns NMDA receptor. Conditions: P19 membranes; concentration-dependent.
Procedure: MK-801 inhibition of [^3H]-MK-801 binding was assayed in P19 membranes. MK-801 concentrations are expressed as 10^−x Molar. Data points represent the mean ±standard error from eight experiments. % control=((CPM−CPMbottom)/(CPMtop−CPMbottom))×100.
Data points represent the mean ±standard error from eight experiments.
The next data set deals with T8, PKG (Homo sapiens, UniProt Q13976).
T8 sequence (Q13976 1-671): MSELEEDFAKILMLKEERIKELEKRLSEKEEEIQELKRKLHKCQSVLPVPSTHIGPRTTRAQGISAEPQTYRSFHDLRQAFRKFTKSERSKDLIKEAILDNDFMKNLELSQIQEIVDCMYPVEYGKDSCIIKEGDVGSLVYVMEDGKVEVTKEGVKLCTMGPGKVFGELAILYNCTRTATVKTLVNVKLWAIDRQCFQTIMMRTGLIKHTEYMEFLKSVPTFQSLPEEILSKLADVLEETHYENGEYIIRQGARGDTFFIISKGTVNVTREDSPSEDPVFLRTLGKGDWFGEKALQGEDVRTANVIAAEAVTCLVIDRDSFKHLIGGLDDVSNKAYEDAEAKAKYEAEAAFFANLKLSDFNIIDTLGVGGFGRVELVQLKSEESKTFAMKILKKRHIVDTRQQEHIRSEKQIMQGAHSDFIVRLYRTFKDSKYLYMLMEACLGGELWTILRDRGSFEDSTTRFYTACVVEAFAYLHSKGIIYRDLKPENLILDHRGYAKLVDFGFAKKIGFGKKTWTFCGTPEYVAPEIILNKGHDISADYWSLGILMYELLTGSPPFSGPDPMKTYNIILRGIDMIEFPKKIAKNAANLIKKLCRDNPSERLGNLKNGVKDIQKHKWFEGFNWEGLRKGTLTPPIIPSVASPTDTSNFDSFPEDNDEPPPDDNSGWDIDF
As to conditions: from the literature; read-out: Potency, PKG; cited from earlier work.

In another data set the target is PKA (Homo sapiens, UniProt P17612). As to conditions: from the literature; read-out: Potency, PKA; cited from earlier work.
A further data set relates to PKC. As to conditions: from the literature; read-out: Potency, PKC; cited from earlier work.
[6] abbreviates: Mus musculus, Neuron, 3 mM glutamate + 1 mM glycine.
[7] abbreviates: 3 mM glutamate + 1 mM glycine, mean of three separate curves.

Read-outs that look alike come from different tables or passages of the source.

Chain of EGF receptor (P00533 25-1210): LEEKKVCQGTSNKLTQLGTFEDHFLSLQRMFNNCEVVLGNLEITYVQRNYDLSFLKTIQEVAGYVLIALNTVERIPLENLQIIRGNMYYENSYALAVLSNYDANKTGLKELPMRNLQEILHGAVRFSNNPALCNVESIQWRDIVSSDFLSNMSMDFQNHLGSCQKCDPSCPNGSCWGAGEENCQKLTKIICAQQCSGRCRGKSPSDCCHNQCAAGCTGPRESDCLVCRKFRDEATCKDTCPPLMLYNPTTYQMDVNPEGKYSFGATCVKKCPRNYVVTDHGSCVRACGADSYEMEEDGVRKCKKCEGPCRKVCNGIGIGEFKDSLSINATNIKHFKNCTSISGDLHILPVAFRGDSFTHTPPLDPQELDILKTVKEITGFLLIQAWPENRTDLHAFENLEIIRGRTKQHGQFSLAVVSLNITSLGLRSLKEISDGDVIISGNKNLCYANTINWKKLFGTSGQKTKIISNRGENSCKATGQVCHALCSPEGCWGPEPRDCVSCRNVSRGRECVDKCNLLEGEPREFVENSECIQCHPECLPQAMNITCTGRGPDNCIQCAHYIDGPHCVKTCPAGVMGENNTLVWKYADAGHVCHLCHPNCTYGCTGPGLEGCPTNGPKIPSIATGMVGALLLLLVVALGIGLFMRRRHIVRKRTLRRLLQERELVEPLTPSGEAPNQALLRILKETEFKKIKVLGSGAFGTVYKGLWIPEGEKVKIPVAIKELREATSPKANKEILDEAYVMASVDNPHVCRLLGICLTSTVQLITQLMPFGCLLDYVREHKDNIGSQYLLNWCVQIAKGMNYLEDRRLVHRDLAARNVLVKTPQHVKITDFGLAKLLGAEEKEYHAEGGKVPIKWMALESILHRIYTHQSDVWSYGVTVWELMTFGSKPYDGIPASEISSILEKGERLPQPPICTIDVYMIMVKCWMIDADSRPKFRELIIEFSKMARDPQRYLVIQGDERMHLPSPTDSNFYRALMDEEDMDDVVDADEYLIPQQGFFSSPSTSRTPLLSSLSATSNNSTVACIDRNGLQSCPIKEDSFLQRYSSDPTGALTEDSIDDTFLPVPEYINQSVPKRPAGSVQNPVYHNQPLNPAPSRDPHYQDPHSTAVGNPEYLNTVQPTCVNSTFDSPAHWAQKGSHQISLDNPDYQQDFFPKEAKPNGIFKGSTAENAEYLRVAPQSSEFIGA
T3 sequence (P11275 1-325): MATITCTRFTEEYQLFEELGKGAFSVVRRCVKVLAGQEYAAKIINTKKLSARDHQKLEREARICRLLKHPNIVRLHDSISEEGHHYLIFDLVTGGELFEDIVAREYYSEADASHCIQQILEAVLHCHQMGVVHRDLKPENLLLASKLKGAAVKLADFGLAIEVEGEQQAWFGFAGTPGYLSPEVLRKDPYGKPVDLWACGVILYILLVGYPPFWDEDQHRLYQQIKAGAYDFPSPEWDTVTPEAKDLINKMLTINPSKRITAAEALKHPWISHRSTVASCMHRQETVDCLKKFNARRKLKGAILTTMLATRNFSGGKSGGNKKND

As to `CNc1ccc2oc(C[C@H]3O[C@@]4(CC[C@H]3C)O[C@H]([C@H](C)C(=O)c3ccc[nH]3)[C@H](C)C[C@H]4C)nc2c1C(=O)O` [A23187], the EC50 with P19 neurons [1] (read-out: EC50 for A23187 toxicity, 24 hours, in the absence of U0126) worked out at 0.52 µM; in the data set on P19 neurons [1] (read-out: EC50 for A23187 toxicity, 24 hours, in the presence of 10 μM U0126) it was 0.833 µM.
As to `COc1cc(N)nc2[nH]c(-c3ccc(F)cc3)c(-c3ccncc3)c12` [Compound A], the IC50 is 9.7 µM in data set [2] (Mus musculus, Neuron, 3 mM glutamate + 1 mM glycine, mean of three separate curves); more than 100 µM at Casein Kinase 2; more than 100 µM against CDK1; more than 100 µM at Calmodulin Kinase; 0.116 µM against Casein Kinase 1; more than 100 µM against Insulin Receptor Kinase. The figures for the IC50 at PKC-γ and at PK A were 8.35 µM and more than 100 µM, respectively. Besides, in data set [2] (setting [6]), the Emax was more than 80%.
`N[C@@H](CCC(=O)O)C(=O)O` [Glutamate]: the “reduction in Alamar blue fluorescence” value in data set [2] (3 mM glutamate and 1 mM glycine for 24 hours) stood at 60%. Further, in data set [2] (constant 1 mM glycine, 24 hours, average of 6 curves, read-out: Glutamate toxicity EC50), the EC50 was 8.1 µM.
Take `NCC(=O)O` [Glycine]: in the data set with P19 neurons [3], the “effect on basal P19 neuron viability” value is “did not affect P19 neuron viability”.
With `CN([C@@H](Cc1ccc(OS(=O)(=O)c2cccc3cnccc23)cc1)C(=O)N1CCN(c2ccccc2)CC1)S(=O)(=O)c1cccc2cnccc12` [KN62], in data set [2] (3 mM glutamate + 1 mM glycine), the “Maximal Efficacy for Neuroprotection” value is less than 10%. The “IC50 for Neuroprotection [lower-upper 95% C.I.]” value in [2] (setting [7]) is “Ineffective”. In addition, the Ki on CAMKII is approximately 0.9 µM.
As to `O=C(O)c1cc(N(Cc2ccccc2O)Cc2cc(O)ccc2O)ccc1O` [Lavendustin A], the “Maximal Efficacy for Neuroprotection” value in [2] (3 mM glutamate + 1 mM glycine) is less than 25%. In addition, the IC50 in data set [2] (setting [7]) was more than 10 µM; at EGF receptor, approximately 0.011 µM; at p60^c-src, approximately 0.5 µM.
On to `[Li]` [Lithium], for which, in data set [2] (setting [6]), the Emax is less than 10%.
Take `C[C@]12N[C@H](Cc3ccccc31)c1ccccc12` [MK-801]: the “Maximal protection against glutamate toxicity” value in [2] (3 mM glutamate and 1 mM glycine-induced P19 neuron death) is listed as “close to control levels”. Moreover, in the data set with NMDA receptor [4], the “effect on glutamate/glycine-induced intracellular calcium response” value is given as “significantly inhibited”. The “inhibition of [3H]-MK-801 binding” value with NMDA receptor [5] stood at 100%.
On to Calphostin C, for which the “Maximal Efficacy for Neuroprotection” value in [2] (3 mM glutamate + 1 mM glycine) is given as “˜50%”. The IC50 was more than 1 µM in data set [2] (setting [7]); more than 25 µM on PKG; more than 50 µM at p60^c-src; more than 50 µM on PKA; approximately 0.05 µM in the data set with PKC.

The EC50 is the midpoint of the concentration-response curve.

The values are drawn from patent US20020198219A1, “2-pyridinamine compositions and related methods” (priority 2000, published 2002).
